Reference: patent US20250092056A1, “URACIL DERIVATIVES HAVING VIRUS REPLICATION INHIBITORY ACTIVITY AND PHARMACEUTICAL COMPOSITION COMPRISING THE SAME” (Shionogi & Co., Ltd., priority 2022, published 2025)

Legend:
[1] = system: SARS-CoV-2; assay: Cytopathic effect (CPE) suppression effect confirmation test using HEK293T/ACE2-TMPRSS2 cells; format: cell-based; settings: Severe acute respiratory syndrome coronavirus 2, HEK-293T; 50% SARS-CoV-2 infected cell death inhibitory concentration; HEK293T/ACE2-TMPRSS2 cells; read-out: EC50
[2] = target: Recombinant SARS-CoV-2 3CL Protease (Severe acute respiratory syndrome coronavirus 2 (2019-nCoV) (SARS-CoV-2), UniProt P0DTD1); assay: biochemical; format: biochemical; settings: 50% SARS-CoV-2 3CL protease inhibitory concentration; read-out: IC50

| Compound | EC50 [1] [nM] | IC50 [2] [nM] |
| --- | --- | --- |
| CC(C)(F)CCc1c(-c2ccc(F)c(Cl)c2)c(=O)n(-c2cncc(Cl)c2)c(=O)n1CC#N [Compound I-357] | < 100 | < 10 |
| N#CCn1c(N2CC(OC(F)F)C2)c(-c2ccc(F)c(Cl)c2)c(=O)n(-c2cncc(C(F)F)n2)c1=O [Compound I-358] | < 100 | < 10 |
| N#CCn1c(-c2nnc(C3CC3)s2)c(-c2ccc(F)c(Cl)c2)c(=O)n(-c2cncc(Cl)c2)c1=O [Compound I-359] | < 100 | < 10 |
| Cc1coc(-c2c(-c3ccc(F)c(Cl)c3)c(=O)n(-c3cncc(Cl)c3)c(=O)n2CC#N)n1 [Compound I-360] | < 100 | < 10 |
| N#CCn1c(N2CC3(C2)CC(F)(F)C3)c(-c2ccc(F)c(Cl)c2)c(=O)n(-c2cncc(Br)c2)c1=O [Compound I-361] | < 100 | < 10 |
| N#CCn1c(N2CC3(C=C(F)C3)C2)c(-c2ccc(F)c(Cl)c2)c(=O)n(-c2cncc(Cl)c2)c1=O [Compound I-362] | < 100 | < 10 |
| N#CCn1c(N2CC3(C2)CC(F)(F)C3)c(-c2ccc(F)c(Cl)c2)c(=O)n(-c2cncc(I)c2)c1=O [Compound I-363] | < 100 | < 10 |
| N#CCn1c(N2CC3(CCOC3)C2)c(CC2CC(F)(F)C2)c(=O)n(-c2cncc(Cl)c2)c1=O [Compound I-364] | 100 to 1000 | > 100 |
| N#CCn1c(N2CC3(CCOC3)C2)c(CCCC(F)(F)F)c(=O)n(-c2cncc(Cl)c2)c1=O [Compound I-365] | 100 to 1000 | 10 to 100 |
| N#CCn1c(N2CC3(C2)CC(F)(F)C3)c(-c2cc(F)c(F)c(C#N)c2)c(=O)n(-c2cncc(Cl)c2)c1=O [Compound I-366] | < 100 | < 10 |
| N#CCn1c(N2CC(O)(C(F)(F)F)C2)c(-c2cc(F)c(F)c(C#N)c2)c(=O)n(-c2cncc(Cl)c2)c1=O [Compound I-367] | < 100 | < 10 |
| N#CCn1c(N2CC(C(F)(F)F)C2)c(-c2cc(F)c(F)c(C#N)c2)c(=O)n(-c2cncc(Cl)c2)c1=O [Compound I-368] | < 100 | < 10 |
| N#CCn1c(N2CC(OC(F)F)C2)c(-c2cc(F)c(F)c(C#N)c2)c(=O)n(-c2cncc(Cl)c2)c1=O [Compound I-369] | < 100 | < 10 |
| N#CCn1c(N2C[C@@H]3C[C@H]2CO3)c(-c2cc(F)c(F)c(C#N)c2)c(=O)n(-c2cncc(Cl)c2)c1=O [Compound I-370] | < 100 | < 10 |
| N#CCn1c(C2CC(O)C2)c(-c2ccc(F)c(Cl)c2)c(=O)n(-c2cncc(Cl)c2)c1=O (stereo not shown) [Compound I-371] | < 100 | < 10 |
| N#CCn1c(N2CC3(C2)CC(F)(F)C3)c(-c2ccc(F)c(C#N)c2)c(=O)n(-c2cncc(Cl)c2)c1=O [Compound I-372] | < 100 | < 10 |
| N#CCn1c(N2CC(O)(C(F)(F)F)C2)c(-c2ccc(F)c(C#N)c2)c(=O)n(-c2cncc(Cl)c2)c1=O [Compound I-373] | < 100 | < 10 |
| N#CCn1c(N2CC(C(F)(F)F)C2)c(-c2ccc(F)c(C#N)c2)c(=O)n(-c2cncc(Cl)c2)c1=O [Compound I-374] | < 100 | < 10 |
| N#CCn1c(N2CC(OC(F)F)C2)c(-c2ccc(F)c(C#N)c2)c(=O)n(-c2cncc(Cl)c2)c1=O [Compound I-375] | < 100 | < 10 |

| Compound | EC50 [1] [nM] | IC50 [2] [nM] |
| --- | --- | --- |
| N#CCn1c(N2C[C@@H]3C[C@H]2CO3)c(-c2ccc(F)c(C#N)c2)c(=O)n(-c2cncc(Cl)c2)c1=O [Compound I-376] | < 100 | < 10 |
| N#CCn1c(N2CC(O)(c3ncccn3)C2)c(-c2ccc(F)c(Cl)c2)c(=O)n(-c2cncc(OCF)n2)c1=O [Compound I-377] | < 100 | < 10 |
| N#CCn1c(N2CC(O)(c3ncccn3)C2)c(-c2ccc(F)c(Cl)c2)c(=O)n(-c2cncc(OC(F)F)n2)c1=O [Compound I-378] | < 100 | < 10 |
| COc1ccc(-c2c(-c3ccc(F)c(Cl)c3)c(=O)n(-c3cncc(Cl)c3)c(=O)n2CC#N)cn1 [Compound I-379] | < 100 | < 10 |
| N#CCn1c(-c2ccc(CO)nc2)c(-c2ccc(F)c(Cl)c2)c(=O)n(-c2cncc(Cl)c2)c1=O [Compound I-380] | < 100 | < 10 |
| N#CCn1c(N2CC(O)(C3CC3)C2)c(-c2ccc(F)c(Cl)c2)c(=O)n(-c2cncc(C(F)F)n2)c1=O [Compound I-381] | < 100 | < 10 |
| CC1(O)CN(c2c(-c3ccc(F)c(Cl)c3)c(=O)n(-c3cncc(C(F)F)n3)c(=O)n2CC#N)C1 [Compound I-382] | < 100 | < 10 |
| N#CCn1c(N2CC(O)(C(F)(F)F)C2)c(-c2ccc(F)c(Cl)c2)c(=O)n(-c2cncc(C(F)F)n2)c1=O [Compound I-383] | < 100 | < 10 |
| N#CCn1c(-c2ccc(C#N)nc2)c(-c2ccc(F)c(Cl)c2)c(=O)n(-c2cncc(Cl)c2)c1=O [Compound I-384] | < 100 | < 10 |
| N#CCn1c(-c2ccc(F)nc2)c(-c2ccc(F)c(Cl)c2)c(=O)n(-c2cncc(Cl)c2)c1=O [Compound I-385] | < 100 | < 10 |
| N#CCn1c(-c2ccc(C(F)F)nc2)c(-c2ccc(F)c(Cl)c2)c(=O)n(-c2cncc(Cl)c2)c1=O [Compound I-387] | < 100 | < 10 |
| N#CCn1c(C2CC2)c(-c2ccc(F)c(Cl)c2)c(=O)n(-c2cncc(Cl)c2)c1=O [Compound I-388] | < 100 | < 10 |
| COCC1CN(c2c(-c3ccc(F)c(Cl)c3)c(=O)n(-c3cncc(C(F)F)n3)c(=O)n2CC#N)C1 [Compound I-389] | < 100 | < 10 |
| N#CCn1c(C2CC(F)(C3CC3)C2)c(-c2ccc(F)c(Cl)c2)c(=O)n(-c2cncc(C(F)F)n2)c1=O (stereo not shown) [Compound I-390] | < 100 | < 10 |
| N#CCn1c(CCC2CC(F)(F)C2)c(-c2ccc(F)c(Cl)c2)c(=O)n(-c2cncc(Cl)c2)c1=O [Compound I-391] | < 100 | < 10 |
| N#CCn1c(C2CC(F)(F)C2)c(-c2ccc(F)c(Cl)c2)c(=O)n(-c2cncc(Cl)c2)c1=O [Compound I-394] | < 100 | < 10 |
| N#CCn1c(C2CCC2)c(-c2ccc(F)c(Cl)c2)c(=O)n(-c2cncc(Cl)c2)c1=O [Compound I-395] | < 100 | < 10 |
| COC1CN(c2c(-c3ccc(F)c(Cl)c3)c(=O)n(-c3cncc(C(F)F)n3)c(=O)n2CC#N)C1 [Compound I-396] | < 100 | < 10 |
| N#CCn1c(N2CCC(C(F)F)CC2)c(-c2ccc(F)c(F)c2)c(=O)n(-c2cncc(Cl)c2)c1=O [Compound I-397] | < 100 | < 10 |

| Compound | EC50 [1] [nM] | IC50 [2] [nM] |
| --- | --- | --- |
| N#CCn1c(N2CCC(C(F)F)CC2)c(-c2ccc(F)c(C#N)c2)c(=O)n(-c2cncc(Cl)c2)c1=O [Compound I-398] | < 100 | < 10 |
| N#CCn1c(N2CC[C@@](O)(C(F)F)C2)c(-c2ccc(F)c(Cl)c2)c(=O)n(-c2cncc(C#N)c2)c1=O [Compound I-399] | < 100 | < 10 |
| N#CCn1c(N2CC[C@](O)(C(F)F)C2)c(-c2ccc(F)c(Cl)c2)c(=O)n(-c2cncc(C#N)c2)c1=O [Compound I-400] | < 100 | < 10 |
| N#CCn1c(N2CCC(F)(F)CC2)c(-c2ccc(F)c(F)c2)c(=O)n(-c2cncc(Cl)c2)c1=O [Compound I-401] | < 100 | < 10 |
| N#CCn1c(N2CCC(C(F)(F)F)CC2)c(-c2ccc(F)c(C#N)c2)c(=O)n(-c2cncc(Cl)c2)c1=O [Compound I-402] | < 100 | < 10 |
| N#CCn1c(N2CCC(F)(F)CC2)c(-c2ccc(F)c(Cl)c2)c(=O)n(-c2cncc(C#N)c2)c1=O [Compound I-403] | < 100 | < 10 |
| N#CCn1c(N2CCC(C(F)F)CC2)c(-c2ccc(F)c(Cl)c2)c(=O)n(-c2cncc(C#N)c2)c1=O [Compound I-404] | < 100 | < 10 |
| CCCNC(=O)c1c(-c2ccc(F)c(Cl)c2)c(=O)n(-c2cncc(Cl)c2)c(=O)n1CC#N [Compound I-405] | 100 to 1000 | > 100 |
| CC(C)NC(=O)c1c(-c2ccc(F)c(Cl)c2)c(=O)n(-c2cncc(Cl)c2)c(=O)n1CC#N [Compound I-406] | 1000 to 5000 | > 100 |
| N#CCn1c(CC2(O)CCC2)c(-c2ccc(F)c(Cl)c2)c(=O)n(-c2cncc(Cl)c2)c1=O [Compound I-407] | < 100 | 10 to 100 |
| N#CCn1c(N2CC(OC(F)(F)F)C2)c(-c2ccc(F)c(Cl)c2)c(=O)n(-c2cncc(OCF)n2)c1=O [Compound I-408] | < 100 | < 10 |
| N#CCn1c(N2CC(CO)C2)c(-c2ccc(F)c(Cl)c2)c(=O)n(-c2cncc(OCF)n2)c1=O [Compound I-409] | < 100 | < 10 |
| N#CCn1c(N2CC(F)(C3CC3)C2)c(-c2ccc(F)c(Cl)c2)c(=O)n(-c2cncc(OCF)n2)c1=O [Compound I-410] | < 100 | < 10 |
| N#CCn1c(N2CC(O)(C(F)F)C2)c(-c2ccc(F)c(Cl)c2)c(=O)n(-c2cncc(OCF)n2)c1=O [Compound I-411] | < 100 | < 10 |
| N#CCn1c(N2CCC(C(F)F)CC2)c(-c2ccc(F)c(F)c2)c(=O)n(-c2cncc(C#N)c2)c1=O [Compound I-412] | < 100 | < 10 |
| N#CCn1c(N2CCC(C(F)F)CC2)c(-c2ccc(F)c(C(F)F)c2)c(=O)n(-c2cncc(C#N)c2)c1=O [Compound I-413] | < 100 | < 10 |
| CC(C)(O)CCc1c(-c2ccc(F)c(Cl)c2)c(=O)n(-c2cncc(C#N)c2)c(=O)n1CC#N [Compound I-414] | < 100 | < 10 |
| N#CCn1c(N2CC(OC(F)F)C2)c(-c2ccc(F)c(C(F)F)c2)c(=O)n(-c2cncc(C#N)c2)c1=O [Compound I-415] | < 100 | < 10 |
